Data reported in US20260007613A1, “LONG-ACTING LOW-TOXICITY NOVEL CATIONIC LIPID COMPOUNDS AND COMPOSITION THEREOF” (BEIJING YOUCAREKECHUANG PHARMACEUTICAL TECHNOLOGY CO., LTD., priority 2023, published 2026).

What was measured:
female BALB/C mice = assay: Live imaging in mice: protein expression of Fluc-mRNA delivered by LNP formulations; type: in vivo
Description: In addition, the protein expression and duration of mRNA in mice delivered by the cationic lipid delivery carriers designed were also verified.
The LNP formulation containing […] Fluc-mRNA was injected intramuscularly into female BALB/C mice aged 4 to 6 weeks old and weighed 17 to 19 g, and the mice were intraperitoneally injected with fluorescent imaging substrate at specific time points after administration (6 h, 24 h, 48 h and 7 d), where the mice were free to move for 5 minutes, and then the average radiation intensity (corresponding to fluorescence expression intensity) of the protein expression of the mRNA carried by the LNP in the mice was detected by the IVIS Spectrum small animal live imaging device.

293T cells [1] = assay: Fluorescent detection of Fluc-mRNA (cell transfection efficiency of LNP formulations); type: cell-based; details: for Relative light unit (RLU): LNP formulation of Fluc-mRNA, 96-well plate, 24 hours; for Multiples (YK-305): RLU of YK-305 / RLU of the lipid of the line; for Multiples (YK-310): RLU of YK-310 / RLU of the lipid of the line; for Multiples (YK-312): RLU of YK-312 / RLU of the lipid of the line; for Multiples (YK-318): RLU of YK-318 / RLU of the lipid of the line; for Multiples (YK-318) / Multiples (YK-319): Tables 5, 7, 11; for Multiples (YK-319): RLU of YK-319 / RLU of the lipid of the line; for Ratio relative to SM-102: RLU of the lipid / RLU of SM-102, times that of SM-102
Description: (§1) Cell recovery and passage: 293T cells were recovered, cultured in a culture dish, and passaged to the required number of cells.
(§2) Seeding plate: The cells in the culture dish were digested and counted. Cells were spread in a 96-well plate at 10,000 cells per well and in a 12-well plate at 150,000 cells per well. Cells were cultured overnight until the cells adhered to the wall.
(§3) Cell recovery and passage: the method was the same as in Example 3.
(§4) Seeding plate: the method was the same as in Example 3.
An LNP formulation containing […] of Fluc-mRNA (the carrier components of the LNP formulation were cationic lipid, neutral lipid, structured lipid and polymer-conjugated lipid with a molar ratio of 49:10:39.5:1.5, wherein the cationic lipid was listed in Table 1) was added to the cell culture medium of a 96-well plate, and further incubated for 24 hours. The corresponding reagent was added according to the instructions of the […] Luciferase Assay Kit, and the fluorescence expression intensity of each well was detected by an IVIS fluorescence detection system. This test verified the transfection efficiencies of LNP formulations in cells, see Tables 4-7 for specific test results.

293T cells [2] = assay: Cell survival rate determination (CCK-8); type: cell-based; details: LNP formulation of Fluc-mRNA, 24 hours, CCK-8
Description: as §1, §2, §3, §4
An LNP formulation containing […] of Fluc-mRNA (the carrier components of the LNP formulation were cationic lipid, neutral lipid, structured lipid and polymer-conjugated lipid with a molar ratio of 49:10:39.5:1.5, wherein the cationic lipid was listed in Table 1) and the formulation of Lipofectamine 3000 were added to the cell culture medium of a 96-well plate, and further cultivated for 24 hours. 10 μL of CCK-8 solution was then added to each well, and the culture plate was incubated in an incubator for 1 hour. The absorbance at 450 nm was measured by a microplate reader.
Cell survival rate can represent the toxicity of cationic lipids to cells. The higher the cell survival rate, the lower the toxicity to cells.

[3] = Particle size and polydispersity index (PDI) of lipid nanoparticles by dynamic light scattering; type: physicochemical; details: LNP formulation prepared from the cationic lipid, 25° C.
Description: The particle size and polydispersity index (PDI) were determined by dynamic light scattering using Malvern laser particle size analyzer.
10 μL of the liposome solution was weighed, diluted to 1 mL with RNase-free deionized water, and added to the sample pool. Each sample was measured in triplicate. The measurement conditions were: […] scattering angle, and 25° C.

[4] = 6 h after intramuscular injection
[5] = 24 h after intramuscular injection
[6] = 48 h after intramuscular injection
[7] = 7 d after intramuscular injection

PDI (%) [3] [%]	Particle size (nm) [3] [nm]	SMILES	average radiation intensity (female BALB/C mice; [4])	average radiation intensity (female BALB/C mice; [5])	average radiation intensity (female BALB/C mice; [6])	average radiation intensity (female BALB/C mice; [7])	Relative light unit (RLU) (293T cells [1])	Multiples (YK-305) (293T cells [1])	Multiples (YK-310) (293T cells [1])	Multiples (YK-312) (293T cells [1])	Multiples (YK-318) (293T cells [1])	Multiples (YK-319) (293T cells [1])	Ratio relative to SM-102 (293T cells [1])	Cell survival rate (%) (293T cells [2])	Cell survival rate (%) (293T cells [2]; listed as YK 303)
18.1	192	CCCCCCCCCCOC(=O)CCCN(CCO)CCCCCC(=O)OCC(CCCCCCCC)CCCCCCCC [YK-009, reference compound]	1004580	754120	110140	9984	5118942	5.35	5.04	3.94	2.19	4.78	3.19	72.55	–
7.0	192	CCCCCCCCCCOC(=O)CCCN(CCCCCC(=O)OCC(CCCCCCCC)CCCCCCCC)C[C@H](O)CN(C)CCO [YK-301, (R)-2-octyldecyl-6-((4-(decyloxy)-4-oxobutyl)((2-hydroxy-3-(2-hydroxyethyl)(methyl)amino)propyl)amino)hexanoate]	–	–	–	–	842452	32.53	30.62	23.92	13.28	29.04	–	52.96	–
13.4	186	CCCCCCCCCCOC(=O)CCCN(CCCCCC(=O)OCCC(CCCCCC)CCCCCC)C[C@H](O)CN(C)CCO [YK-302]	14580	8956	4025	884	27778	936.71	928.69	725.34	402.84	880.83	–	16.43	–
–	–	CCCCCCCCCCCOC(=O)CCCCCN(CCCC(=O)OCCCC(CCCCCCCCCC)CCCCCCCCCC)C[C@H](O)CN(C)CCO [YK-303, (R)-undecyl-6-(4-(4-decyltetradecyloxy)-4-oxobutyl)((2-hydroxy-3-((2-hydroxyethyl)(methyl)amino)propyl)amino)hexanoate]	–	–	–	–	626314	43.76	41.19	32.17	17.87	39.07	–	82.18	63.32
19.8	149	CCCCCCCCCCCOC(=O)CCCCCN(CCCCCC(=O)OCCCCCCCCCCC)C[C@H](O)CN(C)CCO [YK-304, (R)-bis(undecyl)-6,6′-((2-hydroxy-3-((2-hydroxyethyl)(methyl)amino)propyl)azanediyl)dihexanoate]	–	–	–	–	20686	1324.99	1247.08	974.01	540.95	1182.82	–	34.16	–
13.6	228	CCCCCCC(CCCCCC)CCOC(=O)CCCCCN(CCCCCC(=O)OCCC(CCCCCC)CCCCCC)C[C@H](O)CN(C)CCO [YK-306, (R)-bis(3-hexylnonyl)-6,6′-((2-hydroxy-3-((2-hydroxyethyl)(methyl)amino)propyl)azanediyl)dihexanoate]	–	–	–	–	2197174	12.47	11.14	9.17	5.09	11.14	–	42.19	–
32.2	210	CCCCCCCCCCC(CCCCCCCCCC)CCCOC(=O)CCCN(CCCC(=O)OCCCC(CCCCCCCCCC)CCCCCCCCCC)C[C@H](O)CN(C)CCO [YK-307]	–	–	–	–	4557420	6.01	5.66	4.42	2.46	5.37	–	61.14	–
13.4	211	CCCCCCCCCCOC(=O)CCCN(CCCCCC(=O)OCC(CCCCCCCC)CCCCCCCC)C[C@H](O)CN(CC)CCO [YK-308]	–	–	–	–	5036582	5.44	5.12	4.00	–	–	3.14	70.99	–
31.1	209	CCCCCCC(CCCCCC)CCOC(=O)CCCCCN(CCCCCC(=O)OCCC(CCCCCC)CCCCCC)C[C@H](O)CN(CC)CCO [YK-311]	–	–	–	–	1963636	13.96	13.14	10.26	–	–	1.22	70.06	–
24.6	235	CCCCCCCCC(CCCCCCCC)OC(=O)CCCCCCCN(CCCCCCCC(=O)OC(CCCCCCCC)CCCCCCCC)C[C@H](O)CN(CC)CCO [YK-314]	–	–	–	–	547434	50.07	47.12	36.81	–	–	0.34	67.88	–
34.9	181	CCCCCCCCCCC(CCCCCCCCCC)CCCOC(=O)CCCN(CCCC(=O)OCCCC(CCCCCCCCCC)CCCCCCCCCC)C[C@H](O)CN(CC)CCO [YK-315]	–	–	–	–	1587188	17.27	16.25	12.69	–	–	0.99	71.28	–
17.5	188	CCCCCCCCC(CCCCCCCC)COC(=O)CCCCCN(CCCCCC(=O)OCC(CCCCCCCC)CCCCCCCC)C[C@H](O)CN(CCO)CCO [YK-316, (S)-bis(2-octyldecyl)-6,6′-(((3-(bis(2-hydroxyethyl)amino)-2-hydroxypropyl)azanediyl))dihexanoate]	–	–	–	–	4810210	5.70	5.36	4.19	2.33	5.09	3.00	70.53	–
16.4	255	CCCCCCC(CCCCCC)CCOC(=O)CCCCCN(CCCCCC(=O)OCCC(CCCCCC)CCCCCC)C[C@H](O)CN(CCO)CCO [YK-317, (S)-Bis(3-hexylnonyl)-6,6′-((3-(bis(2-hydroxyethyl)amino)-2-hydroxypropyl)azanediyl)dihexanoate]	–	–	–	–	3605054	7.60	7.16	5.59	3.10	6.79	2.25	59.18	–
19.6	212	CCCCCCCCC(CCCCCCCC)OC(=O)CCCCCCCN(CCCCCCCC(=O)OC(CCCCCCCC)CCCCCCCC)C[C@H](O)CN(CCO)CCO [YK-320, (S)-Bis(heptadecan-9-yl)-8,8′-((3-(bis(2-hydroxyethyl)amino)-2-hydroxypropyl)azanediyl)dicaprylate]	–	–	–	–	2702966	10.14	9.54	7.45	4.14	9.05	1.69	71.07	–
